Assay results: patent publication US20250287947A1, “BIOCIDES AND ADHESIVE BINDING THEREOF” (EBERHARD KARLS UNIVERSITÄT TÜBINGEN MEDIZINISCHE FAKULTÄT, priority 2022, published 2025)
≈ marks a conversion by molar mass, not a printed value.

Legend:
[1] = Influence of pH on state of matter of Py-C12 at 20° C. (Example 1); type: physicochemical; set-up: key to state of matter: X: liquid; o: solid; conditions: for solubility in water / state of matter: 1% (w/v); for state of matter: 1% w/v, 20° C.
Source text: 1% (w/v) 5-N-carboxamido-2-pyrrolidone-N-n-dodecyl propane-1,3-diamine (Py-C12) free base was adjusted with HCl or NaOH to pH values between 3.0 and 10.0.

[2] = Influence of temperature on the state of matter of Py-C12 at pH 7.0 and pH 9.0 (Example 2); type: physicochemical; set-up: key to state of matter: X: liquid; o: solid; conditions: for solubility in water / state of matter: 1% (w/v); for state of matter: 1% w/v
Description: 1% (w/v) 5-N-carboxamido-2-pyrrolidone-N-n-dodecyl propane-1,3-diamine (Py-C12) free base was adjusted with HCl or NaOH to pH values 7.0 and 9.0 and subsequently incubated at temperatures between 2° C. and 60° C. […] (see table 2).

[3] = Interactions between salt concentration, temperature and pH on the state of matter of Py-C12 (Example 3); type: physicochemical; set-up: key: X: liquid; o: solid; conditions: 5% w/v
Description: […] The samples were combined with NaCl solutions using concentrations between 0 and 3 M in water and subsequently incubated at temperatures between 24° C. and 45° C.

[4] = system: β-galactosidase-expressing E. coli strain; test: Wash resistance and biocidal activity of Py-C12 treated cotton textile (Example 6); type: cell-based; conditions: treated with 1% (w/v) pH 7.0, E. coli 3 days at 37° C.
Description: Round sterile cotton textile samples were treated with a liquid Py-C12 solution (1% (w/v) in water; pH 7.0) followed by intensive washing steps. For controls, samples were treated with water instead of Py-C12.
For testing wash resistance in an aqueous system samples were incubated in water for 20 h at 50° C. and then washed 16 times with water at 37° C. for 5 to 10 minutes each time.
For testing wash resistance in an alcoholic/acidic system, samples were washed 8 times with 2-propanol/1 mN HCl solution and 8 times with water in total.
After all washing steps, all samples were inoculated with a β-galactosidase-expressing E. coli strain and then incubated for 3 days at 37° C.

[5] = system: β-galactosidase-expressing E. coli strain; test: Wash resistance and biocidal activity of Py-C12 treated polyester fabric (Example 16); type: cell-based; conditions: treated with 5% (w/v) free base, E. coli 3 days at 37° C.
Description: (§1) In a first step, 5% (w/v) Py-C12 free base in water was warmed to 50° C. to obtain a liquid solution. After incubation with the Py-C12 solution, the samples were cooled to room temperature upon which the liquid Py-C12 was converted into a solid phase and thus immobilized to the material. After drying, samples were washed with water at room temperature 10, 20, and 30 times for 15 minutes each time. Thereafter, all samples were inoculated with a β-galactosidase-expressing E. coli strain and then incubated for 3 days at 37° C.

[6] = system: β-galactosidase-expressing E. coli strain; test: Wash resistance and biocidal activity of Py-C12 treated silk fabric (Example 17); type: cell-based; conditions: treated with 1% (w/v) free base; washed 10, 20 and 30 times with water 15 min; E. coli 3 days at 37° C.
Description: as §1, with “1%” for “5%”

[7] = system: β-galactosidase-expressing E. coli strain; test: Wash resistance and biocidal activity of Py-C12 treated cotton fabric (Example 18); type: cell-based; conditions: treated with 1% (w/v) free base, E. coli 3 days at 37° C.
Description: as §1, with “1%” for “5%”, “10” for “10, 20,”

[8] = free base; i.e. 0.0033% (w/v) at ph 9.5; cited from earlier work
[9] = washed 10 times with water 15 min
[10] = washed 30 times with water 15 min

Q: Which results are given for `CCCCCCCCCCCCNCCCNC(=O)C1CCC(=O)N1` (centres unmarked) [Py-C12, 5-N-carboxamido-2-pyrrolidone-N′-n-dodecyl propane-1,3-diamine]?
A: solubility in water / state of matter ([1]; pH values </=7.8, room temperature): completely soluble; solubility in water / state of matter ([1]; pH values >/=8): solid substance; state of matter ([1]; pH 3.0): X; state of matter ([1]; pH 4.0): X; state of matter ([1]; pH 5.0): X; state of matter ([1]; pH 6.0): X; state of matter ([1]; pH 7.0): X; state of matter ([1]; pH 7.8): X; state of matter ([1]; pH 8.0): o; state of matter ([1]; pH 9.0): o; state of matter ([1]; pH 10.0): o; solubility in water / state of matter ([2]; pH 7, temperatures between 2° C. and 60° C.): completely soluble; solubility in water / state of matter ([2]; pH 9.0, temperatures between 2° C. and 60° C.): only present in liquid state at the tested temperatures of 50 °C and 60 °C; state of matter ([2]; pH 7.0, 2° C.): X; state of matter ([2]; pH 7.0, 4° C.): X; state of matter ([2]; pH 7.0, 8° C.): X; state of matter ([2]; pH 7.0, 12° C.): X; state of matter ([2]; pH 7.0, 16° C.): X; state of matter ([2]; pH 7.0, 20° C.): X; state of matter ([2]; pH 7.0, 30° C.): X; state of matter ([2]; pH 7.0, 38° C.): X; state of matter ([2]; pH 7.0, 50° C.): X; state of matter ([2]; pH 7.0, 60° C.): X; state of matter ([2]; pH 9.0, 2° C.): o; state of matter ([2]; pH 9.0, 4° C.): o; state of matter ([2]; pH 9.0, 8° C.): o; state of matter ([2]; pH 9.0, 12° C.): o; state of matter ([2]; pH 9.0, 16° C.): o; state of matter ([2]; pH 9.0, 20° C.): o; state of matter ([2]; pH 9.0, 30° C.): o; state of matter ([2]; pH 9.0, 38° C.): o; state of matter ([2]; pH 9.0, 50° C.): X; state of matter ([2]; pH 9.0, 60° C.): X; state of matter ([3]; pH 4.0, 28° C., 0.5M NaCl): X; state of matter ([3]; pH 4.0, 28° C., 1.0M NaCl): X; state of matter ([3]; pH 4.0, 28° C., 1.5M NaCl): X; state of matter ([3]; pH 4.0, 28° C., 2.0M NaCl): X; state of matter ([3]; pH 4.0, 28° C., 2.5M NaCl): o; state of matter ([3]; pH 4.0, 28° C., 3.0M NaCl): o; state of matter ([3]; pH 4.0, 28° C., no NaCl): X; state of matter ([3]; pH 9.0, 24 °C, 0.5M NaCl): o; state of matter ([3]; pH 9.0, 24 °C, 1.0M NaCl): o; state of matter ([3]; pH 9.0, 24 °C, 1.5M NaCl): o; state of matter ([3]; pH 9.0, 24 °C, 2.0M NaCl): o; state of matter ([3]; pH 9.0, 24 °C, 2.5M NaCl): o; state of matter ([3]; pH 9.0, 24 °C, 3.0M NaCl): o; state of matter ([3]; pH 9.0, 24 °C, no NaCl): o; biocidal effect of treated cotton textile after washing ([4]; alcoholic/acidic system: 8 washes 2-propanol/1 mN HCl and 8 with water): completely colonized; biocidal effect of treated cotton textile after washing ([4]; aqueous system: water 20 h at 50° C., then 16 water washes at 37° C.): maintained its biocidal effect; bacterial growth on treated polyester fabric after washing [5, 9]: unstained; bacterial growth on treated polyester fabric after washing ([5]; washed 20 times with water 15 min): unstained; bacterial growth on treated polyester fabric after washing [5, 10]: Blue coloured bacteria; bacterial growth on treated silk fabric after washing [6]: Blue coloured bacteria only appear in control sample; bacterial growth on treated cotton fabric after washing [7, 9]: doesn't show any bacterial growth; bacterial growth on treated cotton fabric after washing [7, 10]: few spots; solubility in water [8]: 33 µg/mL (≈ 93.3 µM)
